Source: patent publication US20210078958A1, “QUINAZOLINE DERIVATIVE AND USE THEREOF” (MEDSHINE DISCOVERY INC., priority 2017, published 2021)

Key:
HER1 (ErbB1) = HER1 (ErbB1) (Homo sapiens, UniProt P00533); assay: in vitro enzyme activity, HER1 (ErbB1); format: biochemical; conditions: human ErbB1, [γ-33P]ATP, poly(Glu, Tyr) substrate
Protocol: (§1) The purpose of this assay is to detect the in vitro inhibitory activity of compounds on HER1 (ErbB1), HER2 (ErbB2), and HER4 (ErbB4). The enzymes used in this assay are human ErbB1, ErbB2 and ErbB4. Eurofins Pharma Discovery Service provided the method for activity detection.
(§2) Steps and Method of the Assay (96-Well Plate):
(§3) A buffer solution of the test compounds in a dilution of 5-fold (5 μL), polypeptide substrate poly(Glu, Tyr) (4:1) (2.5 μL), ErbB (4-20 ng, 2.5 μL), MnCl2 (50 mM, 1.25 μL), dH2O (3.75 μL), and [γ-^33P]ATP (10 μL) were added, and incubated at 30° C. for 10 minutes. The reaction was terminated by adding 3% phosphoric acid. 10 μL of the sample was taken and transferred to Filtermate A. The filter disc was washed 3 times with 75 mM phosphoric acid and once with methanol. The filter disc was transferred to a sealed plastic bag and the scintillation mixture (4 mL) was added. The intensity of the emitted photon was detected by a scintillation luminescence counter. The CPM (times/min) of the enzyme sample was compared with the CPM of the internal control sample. The level of photon intensity reflected the degree of the tyrosine kinase activity.

HER2 (ErbB2) = HER2 (ErbB2) (Homo sapiens, UniProt P04626); assay: in vitro enzyme activity, HER2 (ErbB2); format: biochemical; conditions: human ErbB2, [γ-33P]ATP, poly(Glu, Tyr) substrate
HER2 (ErbB2), sequence (P04626 23-1255): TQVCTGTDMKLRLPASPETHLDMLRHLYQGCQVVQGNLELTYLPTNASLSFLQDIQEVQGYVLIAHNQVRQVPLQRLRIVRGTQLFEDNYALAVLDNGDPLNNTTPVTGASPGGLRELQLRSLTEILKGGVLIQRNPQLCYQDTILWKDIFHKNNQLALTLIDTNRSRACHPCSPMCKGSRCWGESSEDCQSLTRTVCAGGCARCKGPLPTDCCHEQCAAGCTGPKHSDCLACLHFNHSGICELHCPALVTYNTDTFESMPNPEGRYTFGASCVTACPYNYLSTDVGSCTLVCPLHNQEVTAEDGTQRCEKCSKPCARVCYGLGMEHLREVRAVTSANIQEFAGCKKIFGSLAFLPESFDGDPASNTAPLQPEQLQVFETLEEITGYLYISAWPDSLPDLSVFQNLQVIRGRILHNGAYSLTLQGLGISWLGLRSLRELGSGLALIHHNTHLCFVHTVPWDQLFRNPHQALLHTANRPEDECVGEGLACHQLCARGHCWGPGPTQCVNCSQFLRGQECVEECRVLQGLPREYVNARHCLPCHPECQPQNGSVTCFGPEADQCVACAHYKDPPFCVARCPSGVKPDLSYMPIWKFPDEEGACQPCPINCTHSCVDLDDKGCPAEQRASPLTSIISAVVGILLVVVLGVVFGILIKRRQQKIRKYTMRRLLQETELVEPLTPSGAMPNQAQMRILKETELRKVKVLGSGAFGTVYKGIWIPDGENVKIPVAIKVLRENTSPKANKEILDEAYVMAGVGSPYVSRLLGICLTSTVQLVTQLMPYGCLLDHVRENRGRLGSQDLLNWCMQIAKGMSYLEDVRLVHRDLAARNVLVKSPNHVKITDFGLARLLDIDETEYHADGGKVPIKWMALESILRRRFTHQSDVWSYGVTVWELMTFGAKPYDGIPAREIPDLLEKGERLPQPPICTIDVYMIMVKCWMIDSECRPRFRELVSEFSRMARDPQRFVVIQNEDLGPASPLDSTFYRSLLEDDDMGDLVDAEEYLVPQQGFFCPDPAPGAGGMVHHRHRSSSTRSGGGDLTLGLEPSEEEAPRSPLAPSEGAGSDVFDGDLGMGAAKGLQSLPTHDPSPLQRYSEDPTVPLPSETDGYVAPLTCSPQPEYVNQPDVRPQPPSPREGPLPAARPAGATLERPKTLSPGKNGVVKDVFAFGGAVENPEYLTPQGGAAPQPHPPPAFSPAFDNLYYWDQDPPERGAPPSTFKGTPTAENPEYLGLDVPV
Protocol: as §1, §2, §3

HER4 (ErbB4) = HER4 (ErbB4) (Homo sapiens, UniProt Q15303); assay: in vitro enzyme activity, HER4 (ErbB4); format: biochemical; conditions: human ErbB4, [γ-33P]ATP, poly(Glu, Tyr) substrate
HER4 (ErbB4), sequence (Q15303 26-1308): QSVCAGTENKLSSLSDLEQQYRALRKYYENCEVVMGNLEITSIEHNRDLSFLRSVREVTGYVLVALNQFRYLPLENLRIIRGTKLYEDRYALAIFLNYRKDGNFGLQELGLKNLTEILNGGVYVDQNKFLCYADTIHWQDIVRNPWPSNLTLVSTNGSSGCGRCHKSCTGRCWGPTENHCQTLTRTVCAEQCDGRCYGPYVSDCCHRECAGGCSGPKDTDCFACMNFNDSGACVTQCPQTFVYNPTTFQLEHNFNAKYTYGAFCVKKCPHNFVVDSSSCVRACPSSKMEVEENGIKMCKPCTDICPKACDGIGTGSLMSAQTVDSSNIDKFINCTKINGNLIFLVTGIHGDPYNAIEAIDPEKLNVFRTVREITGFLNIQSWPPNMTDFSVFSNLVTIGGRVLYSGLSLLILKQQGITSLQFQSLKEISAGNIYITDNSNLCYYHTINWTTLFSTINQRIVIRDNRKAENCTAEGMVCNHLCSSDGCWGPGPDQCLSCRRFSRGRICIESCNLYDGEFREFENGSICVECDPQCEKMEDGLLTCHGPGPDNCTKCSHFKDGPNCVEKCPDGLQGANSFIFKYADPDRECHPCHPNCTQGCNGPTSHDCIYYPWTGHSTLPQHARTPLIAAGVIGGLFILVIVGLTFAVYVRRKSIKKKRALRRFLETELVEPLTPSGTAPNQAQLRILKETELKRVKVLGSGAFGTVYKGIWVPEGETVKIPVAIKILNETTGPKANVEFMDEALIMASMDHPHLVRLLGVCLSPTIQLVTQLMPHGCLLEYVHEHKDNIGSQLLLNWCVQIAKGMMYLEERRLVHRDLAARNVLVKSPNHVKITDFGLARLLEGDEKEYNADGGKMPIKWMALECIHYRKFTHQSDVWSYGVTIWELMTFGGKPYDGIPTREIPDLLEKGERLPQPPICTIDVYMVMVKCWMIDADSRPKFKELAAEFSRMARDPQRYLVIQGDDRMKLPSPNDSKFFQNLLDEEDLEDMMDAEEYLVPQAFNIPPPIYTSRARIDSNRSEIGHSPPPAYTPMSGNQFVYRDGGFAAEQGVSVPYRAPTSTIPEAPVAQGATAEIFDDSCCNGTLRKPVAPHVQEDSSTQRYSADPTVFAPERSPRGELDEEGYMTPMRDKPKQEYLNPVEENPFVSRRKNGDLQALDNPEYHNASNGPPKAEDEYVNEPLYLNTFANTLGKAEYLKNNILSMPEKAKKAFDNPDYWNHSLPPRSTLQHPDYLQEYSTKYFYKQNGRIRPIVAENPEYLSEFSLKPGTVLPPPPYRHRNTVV
Protocol: as §1, §2, §3

NCI-N87 cell = assay: inhibitory activity on cell proliferation (Cell-Titer-Glo), NCI-N87; format: cell-based; conditions: Homo sapiens
Excerpt: Purpose of the assay: to detect the inhibitory activity of the test compounds on cell proliferation.
Principle of the assay: the luciferase in a Cell-Titer-Glo reagent produces oxidized luciferin with luciferin, oxygen and ATP as reaction substrates, and releases energy in the form of light. Since the luciferase reaction requires ATP, the total amount of light generated by the reaction is proportional to the total amount of ATP that reflects cell viability.
Cell Titer-Glo cell viability assay kit with luminescence (Promega #G7573)
According to the schematic diagram of the cell seed plate, cells were seeded in a 384- or 96-well plate at a density of 1000 cells per well and 25 μL per well, and 25 μL of PBS was added to the wells near edge of the place where no cells were seeded.
(1) The stock solution of the compounds has a concentration of 10 mM, and the compounds were diluted with DMSO to an initial concentration of 4 mM. The compounds were added to the plate with stock solution of compounds, 9 μL per well.
(2) The compounds were diluted with an ECHO liquid workstation, where 125 nL of compounds were added to each well of the cell plate, 125 nL of DMSO was added to each of the cell well in columns 2 and 23, and 125 nL of DMSO was added to each PBS well in columns 1 and 24.
2.3 After addition of the compounds, the cell plate was centrifuged at 1000 rpm for 1 min, and then placed in a 37° C., 5% CO2 incubator for incubation for 3 days.
The cell plate was taken out from the incubator and equilibrated at room temperature for 30 minutes. 25 μL of Cell-Titer-Glo reagent was added to each well, shaken for one minute to allow well mixed, and centrifuged at 1000 rpm for 1 minute. After 10 minutes, the plate was read on PerkinElmer Envision, and the […] reading time was set to 0.2 second.

[1] = test system: subcutaneous xenograft tumor of human gastric cancer NCI-N87 cells; format: in vivo; conditions: for Tumor volume (mm3) (Day 21) / T/C (%) / TGI (%): 3 mg/kg, NCI-N87 xenograft; for Tumor volume (mm3) (Day 21): Mean ± SEM; for T/C (%) / TGI (%): day 21; for body weight of test animals (reference index for drug toxicity): mouse, in vivo
Protocol: Purpose of the assay: to evaluate the in vivo efficacy of compounds to be tested on subcutaneous xenograft tumor of human gastric cancer NCI-N87 cells in a BALB/c nude mouse model.
Animals of the assay: female BALB/c nude mice, 6-8 weeks old, weighted 18-22 grams; supplier: shanghai sippr bk laboratory animals Ltd.
Human gastric cancer NCI-N87 cells were cultured in monolayer in vitro. The culture conditions were RPMI-1640 medium plus 10% fetal bovine serum, 100 U/mL penicillin, 100 μg/mL streptomycin and 2 mM glutamine, 37° C., 5% CO2. The passaging was performed by the conventional digestion with trypsin-EDTA twice a week. When the cell saturation was 80%-90%, the cells were collected, counted and inoculated.
0.2 mL (10×10^6 cells) of NCI-N87 cells were inoculated subcutaneously on the right back of each nude mouse (PBS+Matrigel, 1:1). When the average tumor volume reached 145 mm^3, administration to each group was started.
The test compounds were formulated into a 0.3 mg/mL clear solution in the solvents of 10% NMP (N-methylpyrrolidone)+10% ethylene glycol stearate+80% water.
The assay index is to investigate whether tumor growth is inhibited, delayed or cured. Tumor diameter was measured twice a week with a vernier caliper. The calculation formula of tumor volume is: V=0.5a×b^2, wherein a and b represent the long and short diameters of tumor, respectively.
The antitumor efficacy of the compounds were evaluated by TGI (%) or relative tumor proliferation rate T/C (%). TGI (%) reflects the tumor growth inhibition rate. TGI (%) is calculated as follows: TGI (%)=[1−(average tumor volume at the end of administration for a certain treatment group−average tumor volume at the beginning of administration for this treatment group)/(average tumor volume at the end of treatment for a solvent control group−average tumor volume at the beginning of administration for this solvent control group)][…].
Relative tumor proliferation rate T/C (%): the calculation formula is as follows: T/C %=TRTV/CRTV (TRTV: RTV for the treatment group; CRTV: RTV for the negative control group). Relative tumor volume (RTV) is calculated based on tumor measurement results. The calculation formula is RTV=Vt/V0, wherein V0 is the average tumor volume measured at the beginning of administration (i.e., d0) to each group, Vt is the average tumor volume at a certain measurement, and the data for TRTV and CRTV were taken on the same day.
The tumor weight was measured after the assay is over and the T/C weight percentage was calculated. T weight and C weight represent the tumor weight of the administration group and the vehicle control group, respectively.
Statistical analysis included the mean and standard error (SEM) of tumor volume at each time point in each group. […] The comparison between two groups was analyzed by T-test, and the comparison among three or more groups was analyzed by one-way ANOVA. […] All data analysis was carried out with SPSS 17.0. p<0.05 was considered a significant difference.

[2] = NCI-N87, footnote d: initial dilution concentration of compounds is 10 μM
[3] = NCI-N87, 72 h, incubation for 3 days, Cell-Titer-Glo

HER1 (ErbB1), sequence (P00533 25-1210): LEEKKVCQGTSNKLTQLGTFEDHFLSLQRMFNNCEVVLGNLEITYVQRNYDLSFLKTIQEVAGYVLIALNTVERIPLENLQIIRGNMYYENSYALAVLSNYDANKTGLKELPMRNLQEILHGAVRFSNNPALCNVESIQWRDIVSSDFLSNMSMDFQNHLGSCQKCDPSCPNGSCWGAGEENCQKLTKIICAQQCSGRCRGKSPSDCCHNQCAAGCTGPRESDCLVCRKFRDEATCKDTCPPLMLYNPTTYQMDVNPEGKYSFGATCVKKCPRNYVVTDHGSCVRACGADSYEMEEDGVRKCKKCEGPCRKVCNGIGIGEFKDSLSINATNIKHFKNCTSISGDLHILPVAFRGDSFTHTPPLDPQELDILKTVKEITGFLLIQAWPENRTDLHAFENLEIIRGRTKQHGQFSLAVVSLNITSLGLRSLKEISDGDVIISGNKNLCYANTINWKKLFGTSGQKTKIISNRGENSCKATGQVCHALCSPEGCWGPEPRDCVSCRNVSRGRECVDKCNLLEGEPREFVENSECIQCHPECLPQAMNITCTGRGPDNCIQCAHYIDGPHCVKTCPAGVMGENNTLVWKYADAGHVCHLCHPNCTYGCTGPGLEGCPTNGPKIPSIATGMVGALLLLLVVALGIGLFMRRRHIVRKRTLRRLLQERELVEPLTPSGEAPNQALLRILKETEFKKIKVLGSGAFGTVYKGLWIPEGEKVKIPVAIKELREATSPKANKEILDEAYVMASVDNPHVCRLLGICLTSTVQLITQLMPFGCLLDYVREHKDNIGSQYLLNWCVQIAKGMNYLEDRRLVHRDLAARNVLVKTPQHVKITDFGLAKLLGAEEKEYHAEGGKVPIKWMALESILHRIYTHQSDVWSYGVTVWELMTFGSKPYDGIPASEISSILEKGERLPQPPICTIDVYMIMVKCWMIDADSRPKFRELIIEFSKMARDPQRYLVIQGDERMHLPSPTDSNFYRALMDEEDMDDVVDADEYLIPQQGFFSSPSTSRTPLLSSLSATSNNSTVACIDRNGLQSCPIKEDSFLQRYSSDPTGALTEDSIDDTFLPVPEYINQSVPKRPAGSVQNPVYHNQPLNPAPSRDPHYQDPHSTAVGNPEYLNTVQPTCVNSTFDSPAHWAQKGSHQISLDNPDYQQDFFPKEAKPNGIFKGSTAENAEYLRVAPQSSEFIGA

| SMILES | IC50 (HER1 (ErbB1)) [nM] | IC50 (HER2 (ErbB2)) [nM] | IC50 (HER4 (ErbB4)) [nM] | IC50 (NCI-N87 cell; [2]) [nM] | Tumor volume (mm3) (Day 21) [1] | T/C (%) [1] [%] | TGI (%) [1] [%] | body weight of test animals (reference index for drug toxicity) [1] | IC50 (NCI-N87 cell; [3]) [nM] |
| --- | --- | --- | --- | --- | --- | --- | --- | --- | --- |
| C=CC(=O)N1C[C@H]2C[C@@H](C1)[C@H]2Oc1cc2c(Nc3ccc(Cl)c(Cl)c3F)ncnc2cc1OC [Example 1] | 2 | 3 | 10 | < 1.5 | 122 ± 11 | 16.62 | 103.98 | significantly better than that of the control compound Poziotinib | – |
| C=CC(=O)N1C[C@H]2C[C@@H](C1)[C@H]2Oc1cc2c(Nc3ccc(F)c(Cl)c3)ncnc2cc1OC [Example 3] | 2 | 5 | 17 | – | – | – | – | – | – |
| C=CC(=O)N1C[C@H]2C[C@@H](C1)[C@H]2Oc1cc2c(Nc3ccc(C#N)c(Cl)c3)ncnc2cc1OC [Example 4] | 2 | 3 | 13 | – | – | – | – | – | – |
| C=CC(=O)N1C[C@H]2C[C@@H](C1)[C@H]2Oc1cc2c(Nc3cccc(Cl)c3F)ncnc2cc1OC [Example 5] | 9 | 24 | 157 | – | – | – | – | – | – |
| C=CC(=O)N1C[C@H]2C[C@@H](C1)[C@H]2Oc1cc2c(Nc3ccc(OC(F)(F)F)c(Cl)c3)ncnc2cc1OC [Example 6] | 2 | 4 | 17 | – | – | – | – | – | – |
| C=CC(=O)N1[C@@H]2CC[C@H]1C[C@@H](Oc1cc3c(Nc4ccc(Cl)c(Cl)c4F)ncnc3cc1OC)C2 [Example 7] | 40 | 69 | 61 | 1.5 | 188 ± 9 | 26.10 | 92.63 | significantly better than that of the control compound Poziotinib | – |
| C=CC(=O)N1[C@@H]2CC[C@H]1C[C@H](Oc1cc3c(Nc4ccc(Cl)c(Cl)c4F)ncnc3cc1OCC(F)(F)F)C2 [Example 20] | 18 | 11 | 10 | – | – | – | – | – | 0.6 |
| C=CC(=O)N1[C@@H]2CC[C@H]1C[C@H](Oc1cc3c(Nc4ccc(Cl)c(Cl)c4F)ncnc3cc1OCCOC)C2 [Example 22] | 12 | 7 | 3 | – | – | – | – | – | – |
| C=CC(=O)N1[C@@H]2CC[C@H]1C[C@H](Oc1cc3c(Nc4ccc(Cl)c(Cl)c4F)ncnc3cc1OCC(=O)NC)C2 [Example 23] | 8 | 4 | 2 | – | – | – | – | – | 0.14 |
| C=CC(=O)N1[C@@H]2CC[C@H]1C[C@H](Oc1cc3c(Nc4ccc(Cl)c(Cl)c4F)ncnc3cc1OCCCN1CCOCC1)C2 [Example 24] | 10 | 6 | 3 | – | – | – | – | – | 0.17 |
| C=CC(=O)N1[C@@H]2CC[C@H]1C[C@H](Oc1cc3c(Nc4ccc(Cl)c(Cl)c4F)ncnc3cc1OCCO)C2 [Example 25] | 6 | 3 | 6 | – | – | – | – | – | 0.19 |
| C=CC(=O)N1[C@@H]2CC[C@H]1C[C@H](Oc1cc3c(Nc4ccc(Cl)c(Cl)c4F)ncnc3cc1O[C@H]1CCOC1)C2 [Example 26] | 8 | 5 | 4 | – | – | – | – | – | 0.24 |
| C=CC(=O)N1[C@@H]2CC[C@H]1C[C@H](Oc1cc3c(Nc4ccc(Cl)c(Cl)c4F)ncnc3cc1O[C@@H]1CCOC1)C2 [Example 27] | 16 | 5 | 3 | – | – | – | – | – | 0.31 |
| C=CC(=O)N1[C@@H]2CC[C@H]1C[C@H](Oc1cc3c(Nc4ccc(Cl)c(Cl)c4)ncnc3cc1OC)C2 [Example 32] | 15 | 5 | 3 | – | – | – | – | – | 0.29 |
| C=CC(=O)N1[C@@H]2CC[C@H]1C[C@H](Oc1cc3c(Nc4cccc(Cl)c4F)ncnc3cc1OC)C2 [Example 33] | 7 | 6 | 3 | – | – | – | – | – | – |
| C=CC(=O)N1[C@@H]2CC[C@H]1C[C@H](Oc1cc3c(Nc4ccc(F)c(Cl)c4)ncnc3cc1OC)C2 [Example 40] | 11 | 5 | 2 | – | – | – | – | – | 0.34 |
| C=CC(=O)N1[C@@H]2CC[C@H]1C[C@H](Oc1cc3c(Nc4ccc(Cl)c(Cl)c4F)ncnc3cc1OC1COC1)C2 [Example 42] | – | – | – | – | – | – | – | – | 0.92 |
| C=CC(=O)N1[C@@H]2CC[C@H]1C[C@H](Oc1cc3c(Nc4ccc(Cl)c(Cl)c4F)ncnc3cc1OCCCO)C2 [Example 44] | 5 | 4 | 3 | – | – | – | – | – | 0.33 |
| C=CC(=O)N1[C@@H]2CC[C@H]1C[C@H](Oc1cc3c(Nc4ccc(Cl)c(Cl)c4F)ncnc3cc1OCCC(C)(C)O)C2 [Example 45] | 8 | 7 | 10 | – | – | – | – | – | 0.69 |
